PubChem BioAssay (NCI)
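GI50 marks 50% less growth. TGI marks complete inhibition of growth.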

Legend:
Experiment in all cases: DTP human tumour cell line panel, 384-well format
RXF 393 renal = tested on: RXF 393 renal
U251 glioblastoma = tested on: U251 glioblastoma
OVCAR-5 ovarian = tested on: OVCAR-5 ovarian
HCT-15 colon = tested on: HCT-15 colon
UACC-62 melanoma = tested on: UACC-62 melanoma
RPMI-8226 leukemia = tested on: RPMI-8226 leukemia
HT29 colon = tested on: HT29 colon
MDA-MB-468 breast = tested on: MDA-MB-468 breast
SN12C renal = tested on: SN12C renal
CCRF-CEM leukemia = tested on: CCRF-CEM leukemia
MALME-3M melanoma = tested on: MALME-3M melanoma
T-47D breast = tested on: T-47D breast
HOP-92 NSCLC = tested on: HOP-92 NSCLC
HL-60(TB) leukemia = tested on: HL-60(TB) leukemia
HS 578T breast = tested on: HS 578T breast
786-0 renal = tested on: 786-0 renal
SNB-75 CNS = tested on: SNB-75 CNS
SNB-19 CNS = tested on: SNB-19 CNS
ACHN renal = tested on: ACHN renal
NCI-H522 lung = tested on: NCI-H522 lung
DU-145 prostate = tested on: DU-145 prostate
LOX IMVI melanoma = tested on: LOX IMVI melanoma
SK-MEL-2 melanoma = tested on: SK-MEL-2 melanoma
TK-10 renal = tested on: TK-10 renal
EKVX NSCLC = tested on: EKVX NSCLC
HCC-2998 colon = tested on: HCC-2998 colon
OVCAR-3 ovarian = tested on: OVCAR-3 ovarian
K-562 leukemia = tested on: K-562 leukemia
NCI-H460 NSCLC = tested on: NCI-H460 NSCLC
UACC-257 melanoma = tested on: UACC-257 melanoma
HCT-116 colon = tested on: HCT-116 colon
SK-MEL-5 melanoma = tested on: SK-MEL-5 melanoma
NCI-H23 lung = tested on: NCI-H23 lung
CAKI-1 renal = tested on: CAKI-1 renal
IGROV1 ovarian = tested on: IGROV1 ovarian
MDA-MB-435 melanoma = tested on: MDA-MB-435 melanoma
COLO 205 colon = tested on: COLO 205 colon
MOLT-4 leukemia = tested on: MOLT-4 leukemia
MCF7 breast = tested on: MCF7 breast
M14 melanoma = tested on: M14 melanoma
SF-268 CNS = tested on: SF-268 CNS
UO-31 renal = tested on: UO-31 renal
SF-539 CNS = tested on: SF-539 CNS
NCI-H322M lung = tested on: NCI-H322M lung
BT-549 breast = tested on: BT-549 breast
SR leukemia = tested on: SR leukemia
SW-620 colon = tested on: SW-620 colon
KM12 colon = tested on: KM12 colon
NCI-H226 lung = tested on: NCI-H226 lung
SK-OV-3 ovarian = tested on: SK-OV-3 ovarian
OVCAR-4 ovarian = tested on: OVCAR-4 ovarian
SF-295 CNS = tested on: SF-295 CNS
A498 renal = tested on: A498 renal
A549 NSCLC = tested on: A549 NSCLC
HOP-62 NSCLC = tested on: HOP-62 NSCLC
OVCAR-8 ovarian = tested on: OVCAR-8 ovarian
NCI/ADR-RES ovarian = tested on: NCI/ADR-RES ovarian
MDA-MB-231 breast = tested on: MDA-MB-231 breast
SK-MEL-28 melanoma = tested on: SK-MEL-28 melanoma
PC-3 prostate = tested on: PC-3 prostate

O=C1CCc2c(Oc3ccc4c(c3)[C@H]3[C@@H](O4)[C@@H]3c3nc4ccc(C(F)(F)F)cc4[nH]3)ccnc2N1
GI50 (RXF 393 renal): 0.188 µM
TGI (RXF 393 renal): 0.331 µM
GI50 (U251 glioblastoma): 3.39 µM
TGI (U251 glioblastoma): > 100 µM
GI50 (OVCAR-5 ovarian): 0.793 µM
TGI (OVCAR-5 ovarian): > 100 µM
GI50 (HCT-15 colon): 2.42 µM
TGI (HCT-15 colon): > 100 µM
GI50 (UACC-62 melanoma): 0.0173 µM
TGI (UACC-62 melanoma): 0.119 µM
GI50 (RPMI-8226 leukemia): 0.166 µM
TGI (RPMI-8226 leukemia): 0.304 µM
GI50 (HT29 colon): 0.206 µM
TGI (HT29 colon): > 100 µM
GI50 (MDA-MB-468 breast): 1.06 µM
TGI (MDA-MB-468 breast): 3.33 µM
GI50 (SN12C renal): 2.08 µM
TGI (SN12C renal): > 100 µM
GI50 (CCRF-CEM leukemia): 1.2 µM
TGI (CCRF-CEM leukemia): 3.05 µM
TGI (MALME-3M melanoma): 0.0322 µM
GI50 (T-47D breast): 1.69 µM
TGI (T-47D breast): 6.94 µM
GI50 (HOP-92 NSCLC): 1.65 µM
TGI (HOP-92 NSCLC): 3.91 µM
GI50 (HL-60(TB) leukemia): 0.0857 µM
TGI (HL-60(TB) leukemia): 0.21 µM
GI50 (HS 578T breast): 1.6 µM
TGI (HS 578T breast): 7.13 µM
GI50 ([…]-0 renal): 3.17 µM
TGI (786-0 renal): > 100 µM
GI50 (SNB-75 CNS): 4.41 µM
TGI (SNB-75 CNS): > 100 µM
GI50 (SNB-19 CNS): 4.79 µM
TGI (SNB-19 CNS): > 100 µM
GI50 (ACHN renal): 0.241 µM
TGI (ACHN renal): 0.592 µM
GI50 (NCI-H522 lung): 0.154 µM
TGI (NCI-H522 lung): 0.292 µM
GI50 (DU-145 prostate): 2.94 µM
TGI (DU-145 prostate): > 100 µM
GI50 (LOX IMVI melanoma): 0.113 µM
TGI (LOX IMVI melanoma): 0.256 µM
GI50 (SK-MEL-2 melanoma): 0.258 µM
TGI (SK-MEL-2 melanoma): 1.21 µM
GI50 (TK-10 renal): 1.83 µM
TGI (TK-10 renal): 8.27 µM
GI50 (EKVX NSCLC): 1.64 µM
TGI (EKVX NSCLC): 8.38 µM
GI50 (HCC-2998 colon): 1.2 µM
TGI (HCC-2998 colon): 5.98 µM
GI50 (OVCAR-3 ovarian): 3.57 µM
TGI (OVCAR-3 ovarian): > 100 µM
GI50 (K-562 leukemia): 0.0201 µM
TGI (K-562 leukemia): 0.05 µM
GI50 (NCI-H460 NSCLC): 1.67 µM
TGI (NCI-H460 NSCLC): > 100 µM
GI50 (UACC-257 melanoma): 0.0436 µM
TGI (UACC-257 melanoma): 0.347 µM
GI50 (HCT-116 colon): 0.494 µM
TGI (HCT-116 colon): 3.58 µM
GI50 (SK-MEL-5 melanoma): 0.0549 µM
TGI (SK-MEL-5 melanoma): 1.48 µM
GI50 (NCI-H23 lung): 0.169 µM
TGI (NCI-H23 lung): 0.454 µM
GI50 (CAKI-1 renal): 1.26 µM
TGI (CAKI-1 renal): > 100 µM
GI50 (IGROV1 ovarian): 0.789 µM
TGI (IGROV1 ovarian): 7.13 µM
GI50 (MDA-MB-435 melanoma): 0.0302 µM
TGI (MDA-MB-435 melanoma): 0.169 µM
GI50 (COLO 205 colon): 0.018 µM
TGI (COLO 205 colon): 0.348 µM
GI50 (MOLT-4 leukemia): 1.14 µM
TGI (MOLT-4 leukemia): 2.38 µM
GI50 (MCF7 breast): 0.294 µM
TGI (MCF7 breast): 1.17 µM
GI50 (M14 melanoma): 0.0134 µM
TGI (M14 melanoma): 0.119 µM

Nc1ccccc1NC(=O)c1ccc(CNC(=O)OCc2cccnc2)cc1
GI50 (RXF 393 renal): 0.239 µM
TGI (RXF 393 renal): 0.918 µM
GI50 (U251 glioblastoma): 0.607 µM
TGI (U251 glioblastoma): 1.91 µM
GI50 (OVCAR-5 ovarian): 0.727 µM
TGI (OVCAR-5 ovarian): 5 µM
GI50 (HCT-15 colon): 1.44 µM
TGI (HCT-15 colon): 9.09 µM
GI50 (RPMI-8226 leukemia): 0.0205 µM
TGI (RPMI-8226 leukemia): 0.0453 µM
GI50 (HT29 colon): 0.563 µM
TGI (HT29 colon): 2.56 µM
GI50 (SF-268 CNS): 0.22 µM
TGI (SF-268 CNS): 0.719 µM
GI50 (UO-31 renal): 1.66 µM
TGI (UO-31 renal): 13.1 µM
GI50 (SF-539 CNS): 1.63 µM
TGI (SF-539 CNS): 14.8 µM
GI50 (NCI-H322M lung): 1.55 µM
TGI (NCI-H322M lung): 6.5 µM
GI50 (MDA-MB-468 breast): 0.244 µM
TGI (MDA-MB-468 breast): 0.713 µM
GI50 (SN12C renal): 1.6 µM
TGI (SN12C renal): 3.28 µM
GI50 (CCRF-CEM leukemia): 0.19 µM
TGI (CCRF-CEM leukemia): 0.368 µM
GI50 (MALME-3M melanoma): 0.109 µM
TGI (MALME-3M melanoma): 0.255 µM
GI50 (T-47D breast): 0.487 µM
TGI (T-47D breast): 1.22 µM
GI50 (BT-549 breast): 0.467 µM
TGI (BT-549 breast): 3.32 µM
GI50 (HOP-92 NSCLC): 0.256 µM
TGI (HOP-92 NSCLC): 0.92 µM
GI50 (HL-60(TB) leukemia): 0.206 µM
TGI (HL-60(TB) leukemia): 0.35 µM
GI50 (HS 578T breast): 0.271 µM
TGI (HS 578T breast): 1.07 µM
GI50 ([…]-0 renal): 2.1 µM
TGI (786-0 renal): 14.9 µM
GI50 (SR leukemia): 0.031 µM
TGI (SR leukemia): 0.105 µM
GI50 (SW-620 colon): 0.521 µM
TGI (SW-620 colon): 2.16 µM
GI50 (SNB-75 CNS): 1.13 µM
TGI (SNB-75 CNS): 13.7 µM
GI50 (SNB-19 CNS): 1.78 µM
TGI (SNB-19 CNS): 6.06 µM
GI50 (ACHN renal): 0.6 µM
TGI (ACHN renal): 2.62 µM
GI50 (KM12 colon): 2.24 µM
TGI (KM12 colon): 19.9 µM
GI50 (NCI-H522 lung): 0.673 µM
TGI (NCI-H522 lung): 2.68 µM
GI50 (DU-145 prostate): 0.338 µM
TGI (DU-145 prostate): 6.41 µM
GI50 (LOX IMVI melanoma): 0.357 µM
TGI (LOX IMVI melanoma): 1.05 µM
GI50 (NCI-H226 lung): 1.07 µM
TGI (NCI-H226 lung): 4.88 µM
GI50 (SK-OV-3 ovarian): 1.5 µM
TGI (SK-OV-3 ovarian): 5.1 µM
GI50 (TK-10 renal): 0.441 µM
TGI (TK-10 renal): 3.82 µM
GI50 (EKVX NSCLC): 2.86 µM
TGI (EKVX NSCLC): 90.5 µM
GI50 (OVCAR-4 ovarian): 1.33 µM
TGI (OVCAR-4 ovarian): 3.63 µM
GI50 (SF-295 CNS): 0.878 µM
TGI (SF-295 CNS): 2.11 µM
GI50 (A498 renal): 0.399 µM
TGI (A498 renal): 1.86 µM
GI50 (HCC-2998 colon): 0.558 µM
TGI (HCC-2998 colon): 1.94 µM
GI50 (OVCAR-3 ovarian): 0.936 µM
TGI (OVCAR-3 ovarian): 3.13 µM
GI50 (K-562 leukemia): 0.185 µM
TGI (K-562 leukemia): 1.16 µM
GI50 (A549 NSCLC): 1.91 µM
TGI (A549 NSCLC): 14.7 µM
GI50 (NCI-H460 NSCLC): 0.352 µM
TGI (NCI-H460 NSCLC): 7.66 µM
GI50 (UACC-257 melanoma): 0.375 µM
TGI (UACC-257 melanoma): 1.38 µM
GI50 (HCT-116 colon): 0.295 µM
TGI (HCT-116 colon): 1.19 µM
GI50 (HOP-62 NSCLC): 0.785 µM
TGI (HOP-62 NSCLC): 3.62 µM
GI50 (SK-MEL-5 melanoma): 0.243 µM
TGI (SK-MEL-5 melanoma): 0.457 µM
GI50 (OVCAR-8 ovarian): 0.368 µM
TGI (OVCAR-8 ovarian): 2.09 µM
GI50 (NCI-H23 lung): 0.79 µM
TGI (NCI-H23 lung): 4.45 µM
GI50 (CAKI-1 renal): 0.918 µM
TGI (CAKI-1 renal): 2.95 µM
GI50 (IGROV1 ovarian): 0.363 µM
TGI (IGROV1 ovarian): 1.72 µM
GI50 (NCI/ADR-RES ovarian): 1.46 µM
TGI (NCI/ADR-RES ovarian): 4.02 µM
GI50 (MDA-MB-435 melanoma): 0.652 µM
TGI (MDA-MB-435 melanoma): 2.4 µM
GI50 (COLO 205 colon): 0.775 µM
TGI (COLO 205 colon): 2.42 µM
GI50 (MOLT-4 leukemia): 0.164 µM
TGI (MOLT-4 leukemia): 0.303 µM
GI50 (MCF7 breast): 0.404 µM
TGI (MCF7 breast): 1.94 µM
GI50 (M14 melanoma): 0.658 µM
TGI (M14 melanoma): 5.66 µM
GI50 (MDA-MB-231 breast): 0.511 µM
TGI (MDA-MB-231 breast): 2.86 µM
GI50 (SK-MEL-28 melanoma): 0.234 µM
TGI (SK-MEL-28 melanoma): 0.493 µM
GI50 (PC-3 prostate): 1.04 µM
TGI (PC-3 prostate): 16.4 µM
